What was measured:
Test in all cases: greenhouse post-emergence herbicidal test
[1] = tested on: KCHSC; type: in vivo, Kochia scoparia; design: key to herbicidal activity against KCHSC found: rating on a scale from 0 to 100; conditions: for herbicidal activity against KCHSC found: post emergence, B.167 62.5 g/ha a.i.
Protocol: (§1) The culture containers used were plastic pots containing medium loamy sand with approximately 4.6% of humus and 69.9% sand as substrate. The seeds of the test plants were sown separately for each species.
(§2) For the post-emergence treatment, the test plants were grown to a plant height of from 1 to 15 cm, depending on the plant habit, and only then treated with the active compounds which had been suspended or emulsified in water. To this end, the test plants were either sown directly, and grown in the same containers, or they were first grown separately as seedlings and transplanted into the test containers a few days prior to treatment.
(§3) Depending on the species, the plants were kept at 10-25° C. and 20-35° C., respectively.
(§4) The test period extended over 1 to 3 weeks. During this time, the plants were tended and their response to the individual treatments was evaluated 20 days after treatment except mentioned otherwise.
(§5) Evaluation was carried out using a scale from 0 to 100. 100 means no emergence of the plants, or complete destruction of at least the above-ground parts, and 0 means no damage or normal course of growth.
(§6) The respective stated components A and B, and, if appropriate, C, were formulated as a 10% by weight strength emulsion concentrate and, with addition of the amount of solvent system, introduced into the spray liquor used for applying the active compound. In the examples, the solvent used was water.
(§7) In the examples below, using the method of S. R. Colby (1967) “Calculating synergistic and antagonistic responses of herbicide combinations”, Weeds 15, p. 22 ff., the value E, which is expected if the activity of the individual active compounds is only additive, was calculated. E=X+Y−(X·Y/100)

[2] = tested on: ERICA; type: in vivo, Conyza canadensis; conditions: Erigeron canadensis, post-emergence, 480 h, read-out: herbicidal activity against ERICA found
Protocol: as §1, §2, §3, §4, §5, §6, §7

[3] = tested on: ECHCG; type: in vivo, Echinochloa crus-galli; design: key to herbicidal activity against ECHCG found / herbicidal activity against ECHCH found: scale 0 to 100; conditions: for herbicidal activity against ECHCG found: B.167 125 g/ha a.i.
Protocol: as §1, §2, §3, §4, §5, §6, §7

[4] = tested on: GERDI; type: in vivo, Geranium dissectum; design: key to herbicidal activity against GERDI found: rating on a scale from 0 to 100
Protocol: as §1, §2, §3, §4, §5, §6, §7

[5] = tested on: POLCO; type: in vivo, Polygonum convolvulus; design: key to herbicidal activity against POLCO found: rating on a scale from 0 to 100
Protocol: as §1, §2, §3, §4, §5, §6, §7

[6] = tested on: MATCH; type: in vivo, Matricaria recutita; design: key to herbicidal activity against MATCH found: rating on a scale from 0 to 100; conditions: for herbicidal activity against MATCH found: I.1 62.5 g/ha
Protocol: as §1, §2, §3, §4, §5, §6, §7

[7] = tested on: VIOAR; type: in vivo, Viola arvensis; conditions: Viola arvensis, post-emergence, read-out: herbicidal activity against VIOAR found
Protocol: as §1, §2, §3, §4, §5, §6, §7

[8] = tested on: ABUTH; type: in vivo, Abutilon theophrast; design: key to herbicidal activity against ABUTH found: rating on a scale from 0 to 100; conditions: for herbicidal activity against ABUTH found: post emergence, I.1 62.5 g/ha
Protocol: as §1, §2, §3, §4, §5, §6, §7

[9] = tested on: PAPRH; type: in vivo, Papaver rhoeas; conditions: 62.5 g/ha a.i.
Protocol: as §1, §2, §3, §4, §5, §6, §7

[10] = tested on: IPOHE; type: in vivo, Ipomoea hederacea; conditions: Ipomoea hederacea, post-emergence, 480 h, read-out: herbicidal activity against IPOHE found
Protocol: as §1, §2, §3, §4, §5, §6, §7

[11] = tested on: GALAP; type: in vivo, Galium aparine; conditions: Galium aparine, post-emergence, 480 h, read-out: herbicidal activity against GALAP found
Protocol: as §1, §2, §3, §4, §5, §6, §7

[12] = tested on: ALOMY; type: in vivo, Alopecurus myosuroides; conditions: Alopecurus myosuroides, post-emergence, 480 h, read-out: herbicidal activity against ALOMY found
Protocol: as §1, §2, §3, §4, §5, §6, §7

[13] = Bassia scoparia, post-emergence, 480 h, read-out: herbicidal activity against KCHSC found
[14] = Echinochloa crus-galli, post-emergence, 480 h, read-out: herbicidal activity against ECHCG found
[15] = Geranium dissectum, post-emergence, 480 h, read-out: herbicidal activity against GERDI found
[16] = Fallopia convolvulus, post-emergence, 480 h, read-out: herbicidal activity against POLCO found
[17] = Matricaria chamomilla, post-emergence, 480 h, read-out: herbicidal activity against MATCH found
[18] = post emergence, I.1 62.5 g/ha, B.167 125 g/ha a.i.
[19] = post emergence, aclonifen 500 g/ha a.i.
[20] = post emergence, aclonifen 1000 g/ha a.i.
[21] = post emergence, aclonifen 250 g/ha a.i.

In the case of `CS(=O)(=O)c1ccc(C(=O)C2C(=O)CCCC2=O)c(Cl)c1` [B.104, sulcotrione], the pest or weed control at 15 g/ha [1, 13] is reported as 90%, the pest or weed control at 15 g/ha [2] is reported as 75% and the pest or weed control at 15 g/ha [3, 14] is reported as 80%. For the same compound, the pest or weed control at 15 g/ha [4, 15] was 45%, the pest or weed control at 15 g/ha [5, 16] was 90% and the pest or weed control at 15 g/ha [6, 17] was 10%. It also gave a pest or weed control at 15 g/ha [7] of 85%.
For `CP(=O)(O)CCC(N)C(=O)O` (stereo not drawn) [B.120, glufosinate-ammonium], the pest or weed control at 62.5 g/ha [1, 13] was 45%, the pest or weed control at 125 g/ha ([8]; Abutilon theophrasti, post-emergence, 480 h, read-out: herbicidal activity against ABUTH found) was 70% and the “herbicidal activity against PAPRH found” value [9] was 30. It also gave a pest or weed control at 62.5 g/ha [4, 15] of 40%, a pest or weed control at 125 g/ha [4, 15] of 90% and a pest or weed control at 125 g/ha [5, 16] of 65%. For the same compound, the pest or weed control at 62.5 g/ha [10] was 80%, the pest or weed control at 62.5 g/ha [6, 17] was 55% and the pest or weed control at 125 g/ha [11] was 80%. For the same compound, the pest or weed control at 125 g/ha [7] was 15%.
For `O=C(O)c1c(Cl)ccc2cc(Cl)cnc12` [B.167, quinclorac], the “herbicidal activity against KCHSC found” value ([1]; I.1 31.25 g/ha) was 0, the “herbicidal activity against KCHSC found” value ([1]; I.1 62.5 g/ha) was 0 and the “herbicidal activity against ABUTH found” value ([8]; B.167 62.5 g/ha a.i.) was 65. The “herbicidal activity against ABUTH found” value ([8]; B.167 125 g/ha a.i.) was 70, the “herbicidal activity against ECHCG found” value ([3]; post emergence, I.1 15.62 g/ha) was 20 and the “herbicidal activity against ECHCG found” value ([3]; post emergence, I.1 31.25 g/ha) was 20. The “herbicidal activity against GERDI found” value [4, 18] was 0, the “herbicidal activity against POLCO found” value ([5]; post emergence, I.1 15.62 g/ha, B.167 62.5 g/ha a.i.) was 0 and the “herbicidal activity against POLCO found” value ([5]; post emergence, I.1 15.62 g/ha, B.167 125 g/ha a.i.) was 30. The “herbicidal activity against POLCO found” value ([5]; post emergence, I.1 62.5 g/ha, B.167 62.5 g/ha a.i.) was 0, the “herbicidal activity against POLCO found” value [5, 18] was 30 and the “herbicidal activity against MATCH found” value ([6]; post emergence, B.167 62.5 g/ha a.i.) was 0. For the same compound, the “herbicidal activity against MATCH found” value ([6]; post emergence, B.167 125 g/ha a.i.) was 30.
For `Nc1c([N+](=O)[O-])ccc(Oc2ccccc2)c1Cl` [aclonifen], the pest or weed control at 500 g/ha [2, 19] was 0%, the pest or weed control at 1000 g/ha [2, 20] was 0% and the pest or weed control at 250 g/ha ([3]; Echinochloa crus-galli, post-emergence, 480 h, post emergence, aclonifen 250 g/ha a.i., read-out: herbicidal activity against ECHCG found) was 50%. It also gave a pest or weed control at 500 g/ha ([3]; Echinochloa crus-galli, post-emergence, 480 h, post emergence, aclonifen 500 g/ha a.i., read-out: herbicidal activity against ECHCG found) of 80%, a pest or weed control at 250 g/ha ([4]; Geranium dissectum, post-emergence, 480 h, post emergence, aclonifen 250 g/ha a.i., read-out: herbicidal activity against GERDI found) of 30% and a pest or weed control at 500 g/ha ([4]; Geranium dissectum, post-emergence, 480 h, post emergence, aclonifen 500 g/ha a.i., read-out: herbicidal activity against GERDI found) of 70%. The pest or weed control at 250 g/ha ([5]; Fallopia convolvulus, post-emergence, 480 h, post emergence, aclonifen 250 g/ha a.i., read-out: herbicidal activity against POLCO found) was 85%, the pest or weed control at 500 g/ha ([5]; Fallopia convolvulus, post-emergence, 480 h, post emergence, aclonifen 500 g/ha a.i., read-out: herbicidal activity against POLCO found) was 95% and the pest or weed control at 1000 g/ha ([5]; Fallopia convolvulus, post-emergence, 480 h, post emergence, aclonifen 1000 g/ha a.i., read-out: herbicidal activity against POLCO found) was 85%. It also gave a pest or weed control at 250 g/ha [12, 21] of 30%, a pest or weed control at 500 g/ha [12, 19] of 60% and a pest or weed control at 1000 g/ha [12, 20] of 70%. It also gave a pest or weed control at 250 g/ha ([6]; Matricaria chamomilla, post-emergence, 480 h, post emergence, aclonifen 250 g/ha a.i., read-out: herbicidal activity against MATCH found) of 0%, a pest or weed control at 500 g/ha ([6]; Matricaria chamomilla, post-emergence, 480 h, post emergence, aclonifen 500 g/ha a.i., read-out: herbicidal activity against MATCH found) of 0% and a pest or weed control at 1000 g/ha ([6]; Matricaria chamomilla, post-emergence, 480 h, post emergence, aclonifen 1000 g/ha a.i., read-out: herbicidal activity against MATCH found) of 0%. It also gave a pest or weed control at 250 g/ha [11, 21] of 80%.
For `COC(=O)c1c(Cl)nn(C)c1S(=O)(=O)NC(=O)Nc1nc(OC)cc(OC)n1` [halosulfuron-methyl], the pest or weed control at 5 g/ha [3, 14] was 45% and the pest or weed control at 5 g/ha [12] was 10%.

Source: patent US10881110B2, “Herbicidal compositions comprising isoxazolo[5,4-b]pyridines” (BASF SE, priority 2014, dated 2021)
